# According to patent publication US20090012263A1, “Process for Production of (1,3-Disubstituted Indolyl)-Urea Derivatives, Intermediates Therefor, and Process for Production of the Intermediates” (KOWA COMPANY, LTD., priority 2004, published 2009):
# Assay: storage stability of the intermediate
# Format: physicochemical
Structure (SMILES),"stability of storage (under refrigeration and light shielding, amorphous powder)","can be stored (storage stability) (room temperature under light shielding, crystalline)"
"O=C(Nc1ccc2c(CN3CCCC3)cn(Cc3c(Cl)cccc3Cl)c2c1)Oc1ccccc1 [Example 4, 6-phenyloxycarbonylamino-3-(1-pyrrolidinylmethyl)-N-[1-(2,6-dichlorophenyl)methyl]-1H-indole]",over 3 months,–
"O=C(Nc1ccc2c(c1)c(CN1CCCC1)cn2Cc1c(Cl)cccc1Cl)Oc1ccccc1 [Example 2, 5-phenyloxycarbonylamino-3-(1-pyrrolidinylmethyl)-N-[1-(2,6-dichlorophenyl)methyl]-1H-indole]",–,over 2 years
